Source: article PMC11672137, “High-Affinity Lectin Ligands Enable the Detection of Pathogenic Pseudomonas aeruginosa Biofilms: Implications for Diagnostics and Therapy” (JACS Au, 2024)

Key:
LecA = target: T1, LecA (Pseudomonas aeruginosa, UniProt Q05097); experiment: Direct binding assay based on fluorescence polarization, titration with LecA; conditions: read-out: Kd (direct binding, fluorescence polarization); LecA titrated to fluorescent probe, TBS/Ca2+ buffer
T1 construct: made in house
Method: The binding affinities of imaging probes 2–4 for LecA were determined using a direct binding assay based on fluorescence polarization (FP).[47]
(A, C) Monovalent LecA imaging probes 2–4 based on phenyl β-D-galactoside (1) were titrated with LecA. […] (E) Xyloside-fluorescein conjugate (8) and azido fluorescein (9) served as negative controls in titrations with LecA and LecB, respectively. Averages and standard deviations were determined from at least three independent titrations of technical triplicates each.
Direct binding affinity determination of LecA and LecB imaging probes was performed with direct titration of protein and imaging probes in TBS/Ca2+ buffer. Protein dilution series was prepared in 96 well plates and 10 µL of each dilution in triplicates were mixed with 10 µL of fluorescent compound (20 nM) in 384-well microtiter plates (Greiner Bio-One, Germany, cat no 781900). The plates were centrifuged (1 min, 500 g), sealed and incubated for 2 h in dark wet chamber under gentle shaking. Fluorescence was measured on a PheraStar FS plate reader (BMG Labtech GmbH, Germany) with excitation filters at 485 nm and emission filters at 535 nm. The data were analysed with MARS Data Analysis Software (BMG Labtech GmbH, Germany) to calculate Kd values.

[1] = tested on: P. aeruginosa PAO1 biofilms; experiment: In vitro biofilm staining under flow conditions, injection method; assay type: cell-based, Pseudomonas aeruginosa; conditions: 17 μM in channel, 10 min incubation, then flow 3 mL/h for 10-20 min
Method: (§1) P. aeruginosa biofilms were grown under flow conditions and observed by fluorescence microscopy in analogy to Ghanbari et al.[66] To this end, P. aeruginosa PAO1 expressing the red fluorescent protein mCherry[56] was diluted to an OD600 nm of 0.1 and injected into the microfluidics device. After a 30-min settling period, biofilms were grown under a constant laminar flow rate of 3 mL/h per channel. Following 48 h of incubation at 30 °C, dense and mature P. aeruginosa PAO1 biofilms were observed, which were then further used for analysis of the imaging probes.
Two different staining methods were evaluated for the imaging of P. aeruginosa PAO1 biofilms: (I) direct injection of the imaging compounds into the flow system or (II) compound supplementation into the medium and gradual accumulation at the biofilm (Figure S18). […] The flow of compounds 17 and 24 and their arrival in the flow cells were monitored using a fluorescence microscope attached to the flow system. […]
Figure 4 Staining of P. aeruginosa PAO1 biofilms under flow following the injection method. […] Pictures of the same aggregates were recorded prior to compound injection (t−10), during a 10 min incubation period without flow (t0) and during the wash period (constant flow, 3 mL/h) at different time points t5, t10, t15, and t20 (5, 10, 15, and 20 min) using a fluorescence microscope. […]

[2] = tested on: P. aeruginosa PAO1 biofilms; experiment: In vitro biofilm staining under flow conditions, compound supplementation to the medium; assay type: cell-based, Pseudomonas aeruginosa; conditions: 3 mL/h
Method: as §1
To circumvent these technical drawbacks, the addition of compounds to the medium reservoir and retention at the biofilm was pursued. Imaging compounds were added to the medium reservoirs at a concentration of 500 nM, which were continuously pumped (3 mL/h) through the flow cell for 4 h. Compound accumulation at mature P. aeruginosa biofilms was immediately analyzed using fluorescence microscopy. Afterwards, the medium was exchanged, and the biofilms were washed for 30 min (3 mL/h, no compound) to monitor the retention (Figure 5). Furthermore, an analysis using CLSM was also performed after 4 h of accumulation without washing (Figures 5 and S22).
Figure 5 Staining of P. aeruginosa PAO1 biofilms grown under flow conditions with compound supplementation to the medium. Biofilm staining with (A) fluorescein divalent probe 17, (B) fluorescein control 24, (C) BODIPY divalent probe 19, and (D) BDP FL azide control 18 was monitored after 4 h of accumulation under constant flow (3 mL/h) of LB media containing 500 nM of respective compound. Retention of imaging compounds is shown after a subsequent wash period for 30 min with medium (3 mL/h, no compound). Images were recorded by using a fluorescence microscope. CLSM was performed for (E) BODIPY divalent probe 19 and the control (F) BDP FL azide 18 after 4 h of accumulation. Green signal originates from fluorescently labeled probes 17 and 19 and controls 24 and 18. P. aeruginosa constitutively expressing mCherry from pMP7605^56 is shown in red. Z-Stack size, 2 μm. Scale bar = 50 μm.
In vitro biofilm staining under flow conditions
The flow cell experiment was set up in analogy to Ghanbari et al. and in this study, optimized and established for biofilm staining.25 In principle, the experiment is based on an inlet connected to a medium source, a peristaltic pump providing constant medium flow, a flow chamber enabling analysis of bacterial growth and an outlet (waste container/bottle).
The medium used in the flow system was LB diluted by factor 5 containing 60 µg/mL
Gm. Silicone tubings 1.6 mm (ibidi, Germany) were used transporting medium from inlet to the peristaltic pump (Watson-Marlow Fluid Technology Solutions). Stopper hoses (CarlRoth) placed in peristaltic pump were coupled to silicone tubes via connectors (ibidi, Germany).
Stopper hoses are connected to bubble traps (obtained by Claus Sternberg, DTU Copenhagen) via 0.8 mm silicone tubing (ibidi, Germany). Bubble traps were used to remove air from the medium flow and to avoid biofilm disruption. Downstream from the bubble traps, the flow cell (μ-Slide VI 0.4 ibiTreat, ibidi, Germany) was placed into the system and connected to 1.6 mm silicone tubes (ibidi, Germany). The outlet is leading the medium from flow chamber to a waste […]
In order to inoculate the flow cell with P. aeruginosa PAO1 mCherry (pMP7605)23 the silicone tubes upstream and downstream of the flow chamber were pinched off by using commercial plastic clamps. The medium flow was stopped and the flow cell was inoculated by injecting 300 µL of the bacterial suspension (OD600nm of 0.1) into the silicone tubing upstream of the flow chamber. For this, a cannula (0.30 x 12 mm, Sterican) was used. The injection point was sealed with silicone glue. After bacterial settling time of 30 min, the flow was started again and clamps were removed. Growth temperature was regulated by using a heat system (ibidi, […]
Germany). […]

T1 sequence (Q05097 whole entry): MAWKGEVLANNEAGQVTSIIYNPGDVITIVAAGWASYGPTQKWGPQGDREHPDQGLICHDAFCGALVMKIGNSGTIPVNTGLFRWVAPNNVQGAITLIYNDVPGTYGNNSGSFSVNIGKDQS

SMILES: O=C(CCc1ccc(O[C@@H]2O[C@H](CO)[C@H](O)[C@H](O)[C@H]2O)cc1)Nc1ccc(CN(CCc2cn(CCOCCOCCOCCNC(=S)Nc3ccc4c(c3)C(=O)OC43c4ccc(O)cc4Oc4cc(O)ccc43)nn2)Cc2ccc(NC(=O)CCc3ccc(O[C@@H]4O[C@H](CO)[C@H](O)[C@H](O)[C@H]4O)cc3)cc2)cc1 [compound 17]
- Kd (LecA): 1050 ± 120 nM
- Retention of fluorescence at biofilm during wash [1]: retained at the P. aeruginosa biofilm aggregates
- Biofilm staining after accumulation ([2]; 500 nM in medium, 4 h, fluorescence microscope): successfully stained PAO1 biofilms
- Retention at biofilm after wash ([2]; after 4 h accumulation at 500 nM, 30 min wash, no compound): still visible at a lower intensity
